Measured values as given in patent US8206732B2, “Pyrithione biocides enhanced by silver, copper, or zinc ions” (Arch Chemicals, Inc., priority 1999, dated 2012).

Columns and labels:
[1] = system: Fusarium sp. and Cephalosporium sp.; assay: Challenge test in metalworking fluid emulsion, fungal viable plate counts (Example 4, FIG. 2); format: cell-based; details: 250 ppm (v/v) NaPT (40% active), 10 ppm Cu (II) or Zn(II); challenged twice over 40 days
Method: An emulsion was prepared from a 5% dilution of a concentrate, consisting of mineral oil (83.5%), sulfonated hydrocarbon (10.7%), oleic acid (1.0%), triethanolamine (0.8%), methyl tallowate (3.0%), and propylene glycol ether (1.0%) and dispensed into Erlenmeyer flasks. Each sample was challenged twice over a period of 40 days with 10^7 calls of bacteria and 10^5 fungal spores per milliliter of emulsion. The challenge consisted of seven strains of bacteria and 2 strains of fungi originally isolated from contaminated metalworking fluid: Pseudomonas rubescens NCIMB 12202, Pseudomonas stutzeri sp., Pseudomonas fluorescens NCIMB 12202, Pseudomonas aeruginosa CIMB 6749, Pseudomonas olevorans NCIMB 6576, Alcaligenes faecalis sp., Citrobacter freundii CIMB 12203, Fusarium sp., and Cephalosporium sp. The fluids were agitated continuously on a rotary shaker, and surviving bacteria and fungi were enumerated periodically by viable plate counts on Tryptic Soy Agar.

Cephalosporium sp. = assay: MIC in Tryptic Soy Broth, microtiter (Example 1); format: cell-based; details: TSB, 28° C., incubated 5 days; single agent (NaPT without Cu)
[2] = system: seven strains of bacteria isolated from contaminated metalworking fluid; assay: Challenge test in metalworking fluid emulsion, bacterial viable plate counts (Example 4, FIG. 1); format: cell-based, Pseudomonas spp., Alcaligenes faecalis, Citrobacter freundii; details: 250 ppm (v/v) NaPT (40% active), 10 ppm Cu (II) or Zn(II); challenged twice over 40 days
[3] = system: Pseudomonas aeruginosa ATCC 9027; assay: MIC in Tryptic Soy Broth, microtiter (Example 1); format: cell-based; details: TSB, 28° C., incubated 5-6 days; single agent (NaPT without Cu)
Fusarium sp. [4] = assay: MIC in Tryptic Soy Broth, microtiter (Example 1); format: cell-based; details: TSB, 28° C., incubated 5 days; single agent (NaPT without Cu)
Method: Equal volumes of bacterial suspension (10^6 bacteria per milliliter of TSB) containing Pseudomonas aeruginosa ATCC 9027 or fungal spore suspension (10^5 spores per milliliter of TSB) containing Aspergillus niger ATCC 6275 or species of Fusarium and Cephalosporium isolated from contaminated metalworking fluid were added to each microtiter plate well, and the plates were incubated at 28° C. Controls were prepared for cultures inoculated into TSB with and without Cu (II).

[5] = system: Aspergillus niger ATCC 6275; assay: MIC in Tryptic Soy Broth, microtiter (Example 1); format: cell-based; details: TSB, 28° C., incubated 7-8 days; single agent (NaPT without Cu)
[6] = system: Pseudomonas aeruginosa 9027; assay: Checkerboard MIC test, pyrithiones with silver salts; format: cell-based; details: silver ion alone or in the inhibitory mixture; TSB pH 7.3, 35° C., 1 to 2 days
Escherichia coli 10536 = assay: as above; format: cell-based; details: TSB pH 7.3, 35° C., 1 to 2 days
Candida albicans 10251 = assay: as above; format: cell-based; details: silver ion alone or in the inhibitory mixture; TSB pH 7.3, 35° C., 1 to 2 days
Pityrosporum ovale 1452 = assay: as above; format: cell-based; details: silver ion alone or in the inhibitory mixture; Ushijima Medium pH 5.5, 35° C., 1 to 2 days
[7] = system: Staphylococcus aureus 27217; assay: as above; format: cell-based; details: TSB pH 7.3, 35° C., 1 to 2 days
[8] = system: Escherichia coli ATCC 10536; assay: Zone of inhibition test (paper disc on TSA); format: cell-based; details: 6.5 mm discs; 0.135% pyrithione, 0.1% ZnCl2 or both; 28° C., 24 hr
[9] = system: Staphylococcus aureus ATCC 27217; assay: Zone of inhibition test (paper disc on TSA); format: cell-based; details: 6.5 mm discs; 0.135% pyrithione, 0.1% ZnCl2 or both; 28° C., 24 hr
[10] = system: Pseudomonas aeruginosa NCIMB 6749; assay: Checkerboard MIC test, pyrithiones with zinc salts; format: cell-based; details: pyrithione alone or pyrithione concentration in the inhibitory mixture; TSB, 28 C, 3 days
two cultures of fungi = assay: Challenge test in soluble oil metalworking fluid, fungi (Example 6); format: cell-based; details: soluble oil MWF, 10 ppm Zn, 100 ppm NaPT, 50 ppm ZPT or 50 ppm CuPT as in column head
[11] = system: Staphylococcus aureus ATCC 27217; assay: Checkerboard MIC test, pyrithiones with zinc salts; format: cell-based; details: pyrithione alone or pyrithione concentration in the inhibitory mixture; TSB, 28 C, 3 days
[12] = system: seven cultures of bacteria; assay: Challenge test in soluble oil metalworking fluid, bacteria (Example 6); format: cell-based; details: soluble oil MWF, 10 ppm Zn, 100 ppm NaPT, 50 ppm ZPT or 50 ppm CuPT as in column head
[13] = system: Pseudomonas aeruginosa NCIMB 6749; assay: Zone of inhibition test (paper disc on TSA); format: cell-based; details: 6.5 mm discs; 0.135% pyrithione, 0.1% ZnCl2 or both; 28° C., 24 hr
[14] = system: Aspergillus niger ATCC 6275; assay: Checkerboard MIC test, pyrithiones with zinc salts; format: cell-based; details: pyrithione alone or in the inhibitory mixture with ZnO; TSB, 28 C, 5 days
Ps. aeruginosa ATCC 9027 = assay: Checkerboard MIC test, pyrithiones with zinc salts; format: cell-based, Pseudomonas aeruginosa; details: pyrithione alone or in the inhibitory mixture with ZnO; TSB, 28 C, 3 days
Fusarium sp. [15] = assay: Checkerboard MIC test, pyrithiones with zinc salts; format: cell-based; details: pyrithione alone or pyrithione concentration in the inhibitory mixture; TSB, 28 C, 5 days
Method: Mixtures of pyrithione and zinc or silver in various proportions were tested for relative efficacy by a modification of the procedure described by Dougherty, et al.
Equal volumes of bacteria (10^6 cells/ml) or fungi (10^5 spores/ml) were added to each microtiter plate well. The plates were incubated at 28 C for 3 days (bacteria) or 5 days (fungi), and the minimum inhibitory concentration (MIC) of biocide was determined. The Fractional Inhibitory Concentration (FIC=concentration of biocide in an inhibitory mixture divided by the MIC of the pure biocide) was determined, and the FIC Index (sum of the two FIC's) was calculated. The type of interaction was categorized according to the magnitude of the Index: Synergistic (<1), Additive (1), or Antagonistic (>1).

[16] = silver ion alone or in the inhibitory mixture
[17] = ZPT alone or in the inhibitory mixture with silver salt

Question: Which “antifungal efficacy in a metalworking fluid (FIG. 2)” value [1] does the source give for O.O.O.O.O.O=S(=O)([O-])[O-].[Cu+2] [Cu (II), CuSO4.5H2O] here?
Answer: Its value is “little effect on reducing the growth of fungi”.

Question: What about the MIC (Cephalosporium sp.) of the same compound?
Answer: Its MIC is >0.5 ppm.

Question: And the “antibacterial efficacy in a metalworking fluid (FIG. 1)” value [2]?
Answer: The value was “significantly reduced bacterial counts until the second challenge”.

Question: And the MIC [3]?
Answer: The MIC was >0.5 ppm.

Question: And the MIC (Fusarium sp. [4])?
Answer: The MIC was >0.5 ppm.

Question: And the MIC [5]?
Answer: The MIC was >0.5 ppm.

Question: How did the “MIC Ag^+1 Ion” value [6] turn out when [Cl][Ag] [AgCl2, AgCl] was run?
Answer: The value was 3.8 ppm.

Question: What about the “MIC Ag^+1 Ion” value (Escherichia coli 10536; [16]) of the same compound?
Answer: The value was 18.8 ppm.

Question: What about the “MIC Ag^+1 Ion” value (Candida albicans 10251) of the same compound?
Answer: The value was 9.8 ppm.

Question: And the “MIC Ag^+1 Ion” value (Pityrosporum ovale 1452)?
Answer: Its value is 1.2 ppm.

Question: And the “MIC Ag^+1 Ion” value [7, 16]?
Answer: Its value is 9.5 ppm.

Question: zinc pyrithione [ZPT] was tested. Which “Zone of Inhibition” value [8] did it give?
Answer: The value was 31 mm.

Question: And the “Zone of Inhibition” value [9]?
Answer: The value was 27 mm.

Question: What about the “MIC ZPT” value (Escherichia coli 10536; [17]) of the same compound?
Answer: Its value is 8 ppm.

Question: And the “MIC Pyrithione” value [10]?
Answer: Its value is 256 ppm.

Question: And the “FUNGI (cfu/ml)” value (two cultures of fungi; DAY 0)?
Answer: Its value is 2.4 × 10^5 cfu/ml.

Question: What about the “FUNGI (cfu/ml)” value (two cultures of fungi; DAY 6) of the same compound?
Answer: Its value is 1000 cfu/ml.

Question: What about the “FUNGI (cfu/ml)” value (two cultures of fungi; DAY 13) of the same compound?
Answer: Its value is 10 cfu/ml.

Question: And the “FUNGI (cfu/ml)” value (two cultures of fungi; DAY 20)?
Answer: Its value is 10 cfu/ml.

Question: And the “MIC Pyrithione” value [11]?
Answer: The value was 4 ppm.

Question: What about the “BACTERIA (cfu/ml)” value ([12]; DAY 0) of the same compound?
Answer: The value was 3.2 × 10^7 cfu/ml.

Question: What about the “BACTERIA (cfu/ml)” value ([12]; DAY 6) of the same compound?
Answer: Its value is 1000 cfu/ml.

Question: And the “BACTERIA (cfu/ml)” value ([12]; DAY 13)?
Answer: The value was 4400 cfu/ml.

Question: And the “BACTERIA (cfu/ml)” value ([12]; DAY 20)?
Answer: The value was 7700 cfu/ml.

Question: What about the “Zone of Inhibition” value [13] of the same compound?
Answer: Its value is 10 mm.

Question: What about the “MIC Pyrithione” value [14] of the same compound?
Answer: Its value is 64 ppm.

Question: What about the “MIC Pyrithione” value (Ps. aeruginosa ATCC 9027) of the same compound?
Answer: The value was 512 ppm.

Question: And the “MIC Pyrithione” value (Fusarium sp. [15])?
Answer: Its value is 64 ppm.

Question: And the “MIC ZPT” value [7, 17]?
Answer: Its value is 4 ppm.
